pIC50: −log10 of the molar value.
Assays:
Assay in all cases: Biochemical kinase profiling (Life Technologies)
ERBB2 (HER2) = target: T1, ERBB2 (HER2) (Homo sapiens, UniProt P04626)
T1 construct: purchased Life Technologies
Method: (§1) Purified PI3K Class I Lipid Kinase, including p110α/p85α, p110β/p85α, p110γ, and p110δ/p85α (Promega, Madison, WI, USA), was respectively incubated with B591 for 30 min at room temperature. The activity of PI3K was evaluated using a PI3-Kinase Activity ELISA kit (K-1000s, Echelon, Salt Lake City, UT, USA) according to the manufacture’s instructions. The assay is a competitive ELISA in which the signal is inversely proportional to the amount of PI(3,4,5)P3 produced. After the PI3-Kinase reactions are complete, reaction products are first mixed and incubated with a PI(3,4,5)P3 detector protein, then added to the PI(3,4,5)P3-coated microplate for competitive binding. A peroxidase-linked secondary detector and colorimetric detection is used to detect PI(3,4,5)P3 detector binding to the plate. The colorimetric signal is inversely proportional to the amount of PI(3,4,5)P3 produced by PI3-Kinase. The absorbance was measured at 450 nm with a Multilabel Reader (PerkinElmer, Waltham, MA, USA). ATP competition assays were executed with varying concentrations of ATP, and five concentrations of ATP were 5 μM, 25 μM, 50 μM, 100 μM, and 200 μM respectively. The IC50 values for inhibition of PI3Kβ by B591 were determined at indicated concentrations of ATP. In addition, B591 selectivity was tested against 39 kinases at Life Technologies.

EPHA8 = target: T2, EPHA8 (Homo sapiens, UniProt P29322)
T2 construct: purchased Life Technologies
Method: as §1

FRAP1 (mTOR) = FRAP1 (mTOR) (Homo sapiens, UniProt P42345)
Method: as §1

PRKCQ (PKC theta) = PRKCQ (PKC theta) (Homo sapiens, UniProt Q04759)
Method: as §1

SYK = SYK (Homo sapiens, UniProt P43405)
Method: as §1

LYN A = LYN A (Homo sapiens, UniProt P07948)
Method: as §1

FYN = FYN (Homo sapiens, UniProt P06241)
Method: as §1

RPS6KB1 (p70S6K) = target: T3, RPS6KB1 (p70S6K) (Homo sapiens, UniProt P23443)
T3 construct: purchased Life Technologies
Method: as §1

PIK3C3 (hVPS34) = PIK3C3 (hVPS34) (Homo sapiens, UniProt Q8NEB9)
Method: as §1

AKT3 (PKB gamma) = AKT3 (PKB gamma) (Homo sapiens, UniProt Q9Y243)
Method: as §1

FGFR2 = target: T4, FGFR2 (Homo sapiens, UniProt P21802)
T4 construct: purchased Life Technologies
Method: as §1

GSK3A (GSK3 alpha) = GSK3A (GSK3 alpha) (Homo sapiens, UniProt P49840)
Method: as §1

FGFR4 = target: T5, FGFR4 (Homo sapiens, UniProt P22455)
T5 construct: purchased Life Technologies
Method: as §1

EPHA2 = target: T6, EPHA2 (Homo sapiens, UniProt P29317)
T6 construct: purchased Life Technologies
Method: as §1

EPHB1 = target: T7, EPHB1 (Homo sapiens, UniProt P54762)
T7 construct: purchased Life Technologies
Method: as §1

PDGFRB (PDGFR beta) = target: T8, PDGFRB (PDGFR beta) (Homo sapiens, UniProt P09619)
T8 construct: purchased Life Technologies
Method: as §1

AKT1 (PKB alpha) = AKT1 (PKB alpha) (Homo sapiens, UniProt P31749)
Method: as §1

IGF1R = IGF1R (Homo sapiens, UniProt P08069)
Method: as §1

AKT2 (PKB beta) = AKT2 (PKB beta) (Homo sapiens, UniProt P31751)
Method: as §1

JAK1 = JAK1 (Homo sapiens, UniProt P23458)
Method: as §1

PIK3C2B (PI3K-C2 beta) = PIK3C2B (PI3K-C2 beta) (Homo sapiens, UniProt O00750)
Method: as §1

DNA-PK = DNA-PK (Homo sapiens, UniProt P78527)
Method: as §1

FGFR1 = target: T9, FGFR1 (Homo sapiens, UniProt P11362)
T9 construct: purchased Life Technologies
Method: as §1

PDGFRA (PDGFR alpha) = target: T10, PDGFRA (PDGFR alpha) (Homo sapiens, UniProt P16234)
T10 construct: purchased Life Technologies
Method: as §1

GSK3B (GSK3 beta) = GSK3B (GSK3 beta) (Homo sapiens, UniProt P49841)
Method: as §1

FGFR3 = target: T11, FGFR3 (Homo sapiens, UniProt P22607)
T11 construct: purchased Life Technologies
Method: as §1

KDR (VEGFR2) = target: T12, KDR (VEGFR2) (Homo sapiens, UniProt P35968)
T12 construct: purchased Life Technologies
Method: as §1

AMPK A2/B1/G1 = AMPK A2/B1/G1 (Homo sapiens, UniProt P54619+P54646+Q9Y478)
Method: as §1

EPHA1 = target: T13, EPHA1 (Homo sapiens, UniProt P21709)
T13 construct: purchased Life Technologies
Method: as §1

SRC = target: T14, SRC (Homo sapiens, UniProt P12931)
T14 construct: purchased Life Technologies
Method: as §1

PTK2 (FAK) = PTK2 (FAK) (Homo sapiens, UniProt Q05397)
Method: as §1

LYN B = LYN B (Homo sapiens, UniProt P07948)
Method: as §1

EGFR (ErbB1) = target: T15, EGFR (ErbB1) (Homo sapiens, UniProt P00533)
T15 construct: purchased Life Technologies
Method: as §1

PDK1 = PDK1 (Homo sapiens, UniProt O15530)
Method: as §1

PIK3C2A (PI3K-C2 alpha) = PIK3C2A (PI3K-C2 alpha) (Homo sapiens, UniProt O00443)
Method: as §1

T12 sequence (P35968 20-1356): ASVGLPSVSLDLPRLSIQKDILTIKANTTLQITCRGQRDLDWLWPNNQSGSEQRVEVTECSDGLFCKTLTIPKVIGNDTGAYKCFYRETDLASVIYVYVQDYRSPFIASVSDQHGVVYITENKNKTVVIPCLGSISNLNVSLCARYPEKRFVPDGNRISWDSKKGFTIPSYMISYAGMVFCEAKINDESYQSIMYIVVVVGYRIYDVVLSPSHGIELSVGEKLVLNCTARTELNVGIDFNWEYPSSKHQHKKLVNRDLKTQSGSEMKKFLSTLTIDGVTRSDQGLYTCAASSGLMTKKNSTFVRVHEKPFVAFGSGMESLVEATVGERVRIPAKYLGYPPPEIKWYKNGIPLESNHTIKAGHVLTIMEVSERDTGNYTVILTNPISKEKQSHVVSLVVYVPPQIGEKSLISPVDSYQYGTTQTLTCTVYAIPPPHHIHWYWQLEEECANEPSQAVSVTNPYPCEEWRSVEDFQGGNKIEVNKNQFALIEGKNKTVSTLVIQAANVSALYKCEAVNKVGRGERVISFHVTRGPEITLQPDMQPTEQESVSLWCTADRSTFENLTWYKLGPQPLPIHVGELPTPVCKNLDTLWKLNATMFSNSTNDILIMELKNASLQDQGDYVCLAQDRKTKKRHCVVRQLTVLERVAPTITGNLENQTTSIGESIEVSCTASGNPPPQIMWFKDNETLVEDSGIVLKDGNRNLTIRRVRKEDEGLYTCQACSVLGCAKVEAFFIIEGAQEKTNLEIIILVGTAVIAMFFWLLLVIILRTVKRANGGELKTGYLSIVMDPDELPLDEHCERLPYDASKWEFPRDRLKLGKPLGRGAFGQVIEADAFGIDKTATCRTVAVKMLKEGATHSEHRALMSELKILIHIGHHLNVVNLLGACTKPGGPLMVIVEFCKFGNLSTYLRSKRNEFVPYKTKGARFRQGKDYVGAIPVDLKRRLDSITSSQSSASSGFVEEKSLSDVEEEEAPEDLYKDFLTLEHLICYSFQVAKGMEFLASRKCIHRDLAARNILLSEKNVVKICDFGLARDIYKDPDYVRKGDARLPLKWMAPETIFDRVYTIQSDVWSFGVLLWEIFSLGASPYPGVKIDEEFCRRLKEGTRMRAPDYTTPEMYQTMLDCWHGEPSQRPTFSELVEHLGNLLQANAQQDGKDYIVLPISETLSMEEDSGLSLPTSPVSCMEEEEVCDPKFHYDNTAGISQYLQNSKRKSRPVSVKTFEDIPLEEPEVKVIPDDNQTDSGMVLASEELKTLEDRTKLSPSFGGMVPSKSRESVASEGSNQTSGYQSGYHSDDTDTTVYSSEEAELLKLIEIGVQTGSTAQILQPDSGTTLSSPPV
T11 sequence (P22607 23-806): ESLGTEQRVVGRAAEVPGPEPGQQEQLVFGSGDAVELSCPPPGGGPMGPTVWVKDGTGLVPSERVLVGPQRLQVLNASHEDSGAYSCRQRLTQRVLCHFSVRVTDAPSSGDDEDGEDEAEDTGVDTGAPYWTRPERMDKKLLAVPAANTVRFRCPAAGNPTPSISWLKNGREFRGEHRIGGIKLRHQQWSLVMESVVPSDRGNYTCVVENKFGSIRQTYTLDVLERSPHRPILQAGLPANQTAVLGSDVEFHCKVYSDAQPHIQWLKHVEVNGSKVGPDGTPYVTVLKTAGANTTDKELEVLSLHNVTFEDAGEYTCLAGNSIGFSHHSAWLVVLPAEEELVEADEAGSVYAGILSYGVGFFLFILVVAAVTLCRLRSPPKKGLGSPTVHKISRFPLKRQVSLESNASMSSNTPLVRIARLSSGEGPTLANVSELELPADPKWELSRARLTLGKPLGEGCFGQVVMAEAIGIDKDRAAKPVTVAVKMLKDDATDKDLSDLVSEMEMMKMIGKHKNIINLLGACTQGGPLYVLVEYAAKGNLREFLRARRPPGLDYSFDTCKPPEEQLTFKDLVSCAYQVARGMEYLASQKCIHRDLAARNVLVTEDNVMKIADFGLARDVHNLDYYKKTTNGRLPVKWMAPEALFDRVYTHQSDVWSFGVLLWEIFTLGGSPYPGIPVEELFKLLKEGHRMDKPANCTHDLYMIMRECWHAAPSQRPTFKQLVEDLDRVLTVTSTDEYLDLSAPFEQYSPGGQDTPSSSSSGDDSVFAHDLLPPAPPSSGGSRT
T8 sequence (P09619 33-1106): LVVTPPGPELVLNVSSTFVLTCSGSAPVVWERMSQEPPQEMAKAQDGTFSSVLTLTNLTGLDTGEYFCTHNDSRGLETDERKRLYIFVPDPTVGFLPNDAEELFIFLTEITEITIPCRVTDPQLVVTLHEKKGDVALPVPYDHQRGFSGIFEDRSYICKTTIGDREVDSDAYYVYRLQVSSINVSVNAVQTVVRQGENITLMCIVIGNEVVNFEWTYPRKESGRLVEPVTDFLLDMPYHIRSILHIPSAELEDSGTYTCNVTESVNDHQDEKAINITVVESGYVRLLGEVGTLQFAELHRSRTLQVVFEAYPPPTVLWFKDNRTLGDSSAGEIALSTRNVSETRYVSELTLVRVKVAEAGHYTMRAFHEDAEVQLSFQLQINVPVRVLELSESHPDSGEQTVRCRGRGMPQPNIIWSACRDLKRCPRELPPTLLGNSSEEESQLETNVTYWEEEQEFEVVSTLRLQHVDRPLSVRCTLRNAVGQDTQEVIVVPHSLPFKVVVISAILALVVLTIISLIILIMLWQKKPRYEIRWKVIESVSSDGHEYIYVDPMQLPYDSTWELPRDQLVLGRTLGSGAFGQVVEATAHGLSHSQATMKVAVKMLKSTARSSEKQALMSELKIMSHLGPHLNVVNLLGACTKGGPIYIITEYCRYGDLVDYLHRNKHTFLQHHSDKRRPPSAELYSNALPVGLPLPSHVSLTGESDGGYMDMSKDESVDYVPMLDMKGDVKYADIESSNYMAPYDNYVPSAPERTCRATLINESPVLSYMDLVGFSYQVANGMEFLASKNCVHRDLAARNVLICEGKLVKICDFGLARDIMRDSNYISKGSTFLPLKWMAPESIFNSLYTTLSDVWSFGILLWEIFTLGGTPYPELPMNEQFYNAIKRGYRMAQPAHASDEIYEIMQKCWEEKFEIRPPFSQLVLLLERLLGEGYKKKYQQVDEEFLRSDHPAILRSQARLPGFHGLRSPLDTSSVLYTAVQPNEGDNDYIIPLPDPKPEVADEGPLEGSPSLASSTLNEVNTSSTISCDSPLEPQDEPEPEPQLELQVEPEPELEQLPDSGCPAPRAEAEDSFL
Chain of PIK3C2B (PI3K-C2 beta) (O00750 whole entry): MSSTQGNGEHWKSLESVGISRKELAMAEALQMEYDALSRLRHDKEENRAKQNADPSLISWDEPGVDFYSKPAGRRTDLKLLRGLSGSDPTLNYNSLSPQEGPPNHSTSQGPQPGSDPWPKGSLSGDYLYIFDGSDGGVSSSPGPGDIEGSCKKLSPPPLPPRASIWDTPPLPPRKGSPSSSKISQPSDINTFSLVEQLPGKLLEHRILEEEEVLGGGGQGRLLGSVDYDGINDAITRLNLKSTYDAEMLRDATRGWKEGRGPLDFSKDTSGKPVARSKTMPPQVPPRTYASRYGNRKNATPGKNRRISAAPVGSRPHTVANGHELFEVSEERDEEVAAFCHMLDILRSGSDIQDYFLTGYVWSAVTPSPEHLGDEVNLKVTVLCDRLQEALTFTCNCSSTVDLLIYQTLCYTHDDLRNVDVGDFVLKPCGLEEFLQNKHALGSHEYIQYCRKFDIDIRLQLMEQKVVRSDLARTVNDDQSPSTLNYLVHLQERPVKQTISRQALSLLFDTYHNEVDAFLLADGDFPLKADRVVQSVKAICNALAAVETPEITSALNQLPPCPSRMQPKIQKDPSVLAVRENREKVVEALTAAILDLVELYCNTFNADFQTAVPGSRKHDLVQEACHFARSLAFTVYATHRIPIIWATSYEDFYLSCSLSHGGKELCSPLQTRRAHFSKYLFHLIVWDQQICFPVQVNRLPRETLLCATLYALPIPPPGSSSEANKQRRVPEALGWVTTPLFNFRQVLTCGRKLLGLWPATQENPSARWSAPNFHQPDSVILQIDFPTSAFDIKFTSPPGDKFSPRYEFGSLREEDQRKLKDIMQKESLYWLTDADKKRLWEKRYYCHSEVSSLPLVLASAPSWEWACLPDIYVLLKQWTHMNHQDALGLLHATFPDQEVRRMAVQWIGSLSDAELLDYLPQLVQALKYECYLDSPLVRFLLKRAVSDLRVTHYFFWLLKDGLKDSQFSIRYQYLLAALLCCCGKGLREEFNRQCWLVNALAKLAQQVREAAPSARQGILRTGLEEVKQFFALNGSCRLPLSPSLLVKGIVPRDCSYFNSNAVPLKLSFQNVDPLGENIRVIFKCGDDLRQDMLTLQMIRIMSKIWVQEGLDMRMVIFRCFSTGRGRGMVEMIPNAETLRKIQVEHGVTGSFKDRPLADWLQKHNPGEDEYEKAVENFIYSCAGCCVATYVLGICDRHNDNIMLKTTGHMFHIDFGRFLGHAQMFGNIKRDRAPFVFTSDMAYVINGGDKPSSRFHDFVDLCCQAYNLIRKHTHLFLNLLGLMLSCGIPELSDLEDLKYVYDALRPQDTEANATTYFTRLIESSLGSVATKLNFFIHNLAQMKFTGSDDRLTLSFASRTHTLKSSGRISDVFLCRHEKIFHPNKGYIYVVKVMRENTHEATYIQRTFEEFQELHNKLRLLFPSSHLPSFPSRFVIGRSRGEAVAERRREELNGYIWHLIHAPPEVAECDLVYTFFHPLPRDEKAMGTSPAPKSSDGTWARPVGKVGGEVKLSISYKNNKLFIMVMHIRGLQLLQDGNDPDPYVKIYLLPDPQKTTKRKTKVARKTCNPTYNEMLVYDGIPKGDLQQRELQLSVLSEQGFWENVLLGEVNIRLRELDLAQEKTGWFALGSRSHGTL

pIC50 (ERBB2 (HER2)): < 3.30
pIC50 (EPHA8): < 3.30
pIC50 (FRAP1 (mTOR)): < 3.30
pIC50 (PRKCQ (PKC theta)): < 3.30
pIC50 (SYK): < 3.30
pIC50 (LYN A): < 3.30
pIC50 (FYN): < 3.30
pIC50 (RPS6KB1 (p70S6K)): < 3.30
pIC50 (PIK3C3 (hVPS34)): 3.99
pIC50 (AKT3 (PKB gamma)): < 3.30
pIC50 (FGFR2): < 3.30
pIC50 (GSK3A (GSK3 alpha)): < 3.30
pIC50 (FGFR4): < 3.30
pIC50 (EPHA2): < 3.30
pIC50 (EPHB1): < 3.30
pIC50 (PDGFRB (PDGFR beta)): < 3.30
pIC50 (AKT1 (PKB alpha)): < 3.30
pIC50 (IGF1R): < 3.30
pIC50 (AKT2 (PKB beta)): < 3.30
pIC50 (JAK1): < 3.30
pIC50 (PIK3C2B (PI3K-C2 beta)): 4.04
pIC50 (DNA-PK): 3.35
pIC50 (FGFR1): < 3.30
pIC50 (PDGFRA (PDGFR alpha)): < 3.30
pIC50 (GSK3B (GSK3 beta)): < 3.30
pIC50 (FGFR3): < 3.30
pIC50 (KDR (VEGFR2)): < 3.30
pIC50 (AMPK A2/B1/G1): < 3.30
pIC50 (EPHA1): < 3.30
pIC50 (SRC): < 3.30
pIC50 (PTK2 (FAK)): < 3.30
pIC50 (LYN B): < 3.30
pIC50 (EGFR (ErbB1)): < 3.30
pIC50 (PDK1): < 3.30
pIC50 (PIK3C2A (PI3K-C2 alpha)): 3.75
SMILES: Cc1cc2c(cc1C)[n+](Cc1ccccc1Br)cn2Cc1ccc2c(c1)CCO2.[Br-] [B591, 3-(2-bromobenzyl)-1-((2,3-dihydrobenzofuran-5-yl)methyl) -5,6-dimethyl-1H-benzo[d]imidazol-3-ium bromide]

— paper PMC6756013, “B591, a novel specific pan-PI3K inhibitor, preferentially targets cancer stem cells” (Oncogene, 2019)
